Results on one molecule are retold here after patent US20250161245A1, “A MIXTURE OF UREA, BIURET AND N-CONTAINING BY-PRODUCTS CREATED DURING BIURET PRODUCTION AS A DIETARY NON-PROTEIN NITROGEN-SOURCE FOR RUMINANTS AND USES THEREOF” (Yara International ASA, priority 2022, published 2025).

One assay has as its system beef steers. Kind of assay: enteric methane emission, SF6 tracer technique (Example 3). It is filed as in vivo, crossbred yearling steers. The procedure: Methane emission was measured in all steers for five consecutive days using the SF6 tracer technique (Johnson et al., 1994; Henry et al., 2020). In this technique, the steers received a calibrated permeation tube filled with SF6 (3.1 g+0.2 g) before the measurement period. The average SF6 release rate was […]+1.1 mg/d. After five days of training, a vacuum gas collector canister was attached to each animal to collect a sample of daily gas production. Each day at the same hour, a new vacuum canister was replaced throughout the five days of the measurement period. Five collection canisters were used to determine environmental CH4 and SF6 concentrations. A gas sample was taken from each canister and conserved in 120 ml bottles for posterior analysis of CH4 and SF6 using gas chromatography. For the current experiment, only steers with a least three successful days of collection and measurement were considered in the final analysis. Gas samples were analyzed by gas chromatography (Agilent 7820A GC, Agilent Technologies, Palo Alto, CA). A flame ionization and electron capture detector were used for CH4 and SF6 analysis, respectively, with a capillary column (Plot Fused Silica 25 m×0.32 mm, Coating Molsieve 5A, Varian CP7536, Varian Inc., Lake Forest, CA). The injector, column and detector temperatures for CH4 analysis were 80, 160 and 200° C., respectively. For SF6, temperatures were 50, 30 and 300° C. for the injector, the column and the detector, respectively. The carrier gas for CH4 and SF6 was N2. The emissions of CH4 were calculated according to the next equation:
[formula] • QCH4=CH4 emissions per animal (g/day) • QSF6=SF6 release rate (mg/day) • [CH4]γ=the concentration of CH4 in the animals' collection canister • [CH4]β=the concentration of CH4 in the environmental collection canister • [SF6]γ=the concentration of SF6 in the animals' collection canister • [SF6]β=the concentration of SF6 in the environmental collection canister

Another assay concerns ruminal microorganisms. The assay is described as follows: dual-flow continuous culture fermenters simulating rumen fermentation (Example 2). It is filed as cell-based, Holstein dairy cows. The following applies: NPN 0.51 wt. % urea or 0.55 wt. % UB of diet DM. The procedure:
In this example, an in vitro assay was performed using dual-flow continuous culture fermenters, aiming to simulate rumen fermentation.
Eight 1320 ml dual-flow continuous culture fermenters were used in two replicated periods. Each period consisted out of 5 days for adaptation of the ruminal fluid to the treatments and 3 days for sampling. On the first day of each period, all fermenters were inoculated with undiluted ruminal fluid filtered through two layers of cheesecloth to remove the feed particles. The fermentation conditions were constant, i.e. • a temperature of 39° C., • a pH of 6.4±0.05 by infusion of 3 N HCl or 5 N NaOH, • anaerobiosis with continued infusion of N2 gas at a rate of 40 ml/min, and • continued infusion of artificial saliva to obtain liquid and solid dilution rates of 10%/h and 5%/h, respectively.
The fermenters were fed 95 grams/day of dry matter of a diet formulated to meet or exceed current nutrients recommendations for lactating dairy cows, i.e. • 166 g/kg crude protein (CP), • 323 g/kg neutral detergent fiber (NDF), and • 201 g/kg acid detergent fiber (ADF),
And were fed in three daily administrations, i.e. at 7, 15 and 23 o'clock with a forage: concentrate diet in a range of 53:47.
Ruminal fluid was taken from two Holstein dairy cows fitted with ruminal cannulas fed with a 60:40 forage:concentrate diet with alfalfa and cracked grain (11 kg dry matter/cow/day). The afternoon before the ruminal extraction, the ruminant animals were not fed.
The NPN-dietary treatments were as follows: • Control: basal diet to which 0.51 wt. % urea was added, with wt. % on dry matter basis, • Diet: basal diet to which 0.55 wt. % of the mixture according to the present disclosure, with composition as in example 1, was added, with wt. % on dry matter basis.
On the second day of sampling, 4 ml of filtered fermenter fluid was taken 2 hours after the morning feeding to determine VFA-concentrations.
During sampling days, the collection vessels were maintained at 4° C. to prevent microbial activity. Solid and liquid effluents from 3 sampling days were composited and mixed within the fermenter and homogenized. Subsamples were taken for the analyses of the volatile fatty acids (VFA). The remainder of the sample was lyophilized (freeze drying) and the dry samples were analyzed for DM, ash, N and purines to calculate bacterial nitrogen and organic matter content (OM).
Bacterial cells were obtained from the fermenter flasks the last day of each experimental period. Solid and liquid associated bacteria were isolated using a combination several detachment procedures selected to obtain the maximum detachment without affecting the cell integrity. The bacterial cells were lyophilized and the dry samples were analyzed for dry matter (DM), ash, N and purines to calculate bacterial nitrogen.
Effluent dry matter (DM) was determined by lyophilizing 300 ml aliquots in triplicate. The DM content of the diets and bacterial samples were determined by drying samples for 24 hours in an 103° C. forced air oven (see AOAC, 1990; method 950.01).
Dry samples of diets, effluents and bacteria were ashed overnight at 550° C. in a muffle furnace (see AOAC, 1990, method 976.05) and organic matter (OM) was determined by difference. Total N of diets, effluents and bacterial samples were determined by a Kjeldhal method (AOAC, 1990; method 976.05). Sample crude protein (CP) was calculated as N×6.25. Effluent CP was determined in liquid samples. Crude protein degradation was calculated as the difference between CP in the diet minus CP in the effluent and expressed as wt. % of DM. The EMPS was determined by dividing bacterial N by fermented organic matter.
The fiber components of the diets and the effluents were analyzed sequentially using a thermostable alpha-amylase and sodium sulfite and expressed without residual ash.
The samples for the VFA-analysis were prepared as described by Jouany, J. P., and J. Senaud. […]

[1] abbreviates: five consecutive days, SF6 tracer.

Molecules are shown by their SMILES.

Consider `NC(N)=O` [Urea, urea], for which, in the assay on beef steers (Table 7 (methane measurement)), the DM intake is given as 6.08 kg/day. In the assay with beef steers (setting [1]), the “Methane emission (g/kg ADG)” value was determined as 213.79 g/kg ADG, the “Methane emission (g/kg DMI)” value turned out to be 36.59 g/kg DMI and the “Methane emission (g/kg OMI)” value turned out to be 38.68 g/kg OMI. Further, in the assay on ruminal microorganisms, the “Acetate to propionate ratio” value was 3.5, the CP degradation is 47.7 % of dry matter, the EMPS is 35.7 g bacterial N/kg of fermented organic matter and the “True digestibility DM” value is recorded as 53.53 wt. % of DM. In the assay with ruminal microorganisms, the “True digestibility OM” value was 52.95 wt. % of DM, the “VFA Acetate” value is 62.92 and the “VFA Propionate” value is 18.18.
